We go through six compounds from patent US20110110891A1, “Methods of Treating Hepatitis C Virus Infection” (priority 2008, published 2011).

One experiment has as its target MEK-1 (Homo sapiens, UniProt Q02750). The settings on record: in vitro; cited from earlier work.
Another experiment deals with ERK-2 (Homo sapiens, UniProt P28482). The settings on record: cited from earlier work.
For experiment [1], the system named is HCV. Nature of the experiment: HCV RNA in supernatant of eGFP-Jc1 transfected Huh7.5 cells (qRT-PCR). Format: cell-based, Hepatitis C virus. The settings on record: 10 μM, Day 3. As to the method: Day 0: Huh7.5 cells were transfected with an eGFP-Jc1 reporter construct RNA via electroporation (10 μg RNA per 4×10^6 cells). The eGFP-Jc1 reporter construct is a modified version of the Jc1 (J6/C3 chimera) described by Pietschmann et al. (2006) PNAS 103(19): 7408-7413, in which an eGFP (enhanced green fluorescent protein)-IRES (internal ribosomal entry site) cassette has been inserted between the 5′UTR and the open reading frame of the Jc1 construct.
(§1) Transfected cells were then plated at 2×10^6 cells per T75 flask.
(§2) Day 1: The cells were washed 3 times and treated with 10 μl dimethylsulfoxide (DMSO) (control), 10 μM ERK Inhibitor II (FR180204Calbiochem) or 10 μM U0126 (Promega).
(§3) Day 3: The transfected Huh7.5 cells and the supernatant were harvested. The harvested cells and the supernatant were analyzed by quantitative reverse transcription-polymerase chain reaction (qRT-PCR) for levels of HCV RNA
(§4) Viral RNA in culture supernatants was isolated using RNA STAT-50 LS REAGENT (Tel Test). total cellular RNA or 10 μl of RNA of culture supernatant was used for cDNA synthesis using SuperScript III reverse transcriptase (Invitrogen) and random hexamer primers. Viral RNA levels were measured by quantitative real-time PCR using Taqman probes and corresponding primers.

The subject of experiment [2] is HCV. Put plainly: Intracellular HCV RNA in eGFP-Jc1 transfected Huh7.5 cells (qRT-PCR). Format: cell-based, Hepatitis C virus. The settings on record: 10 μM, Day 3. As to the method: The eGFP-Jc1 reporter construct is a modified version of the Jc1 (J6/C3 chimera) described by Pietschmann et al. (2006) PNAS 103(19): 7408-7413, in which an eGFP (enhanced green fluorescent protein)-IRES (internal ribosomal entry site) cassette has been inserted between the 5′UTR and the open reading frame of the Jc1 construct.
as §1, §2, §3
Total RNA was extracted from transfected cells using RNA STAT-60 REAGENT (Tel Test).
as §4

Experiment [3] concerns HCV. The settings on record: 10 μM, 1 h pretreatment, anti-CD81 single-round infection. As to the method: Virus: Transfection of Huh7.5 cells with eGFP-Jc1 reporter construct RNA via electroporation (10 μg RNA per 4×10^6 cells)
Harvest virus in the supernatant (Filter & Concentrate using Amicon MWCO 100): conc 10 ml to 200 μl after 3 days
Day 0: Plate Huh7.5 at 1×10^4 cells per well […] (24 well plate)
Day 1: Pretreat cells with 10 μl DMSO or 10 μM U0126 for 1 h
Infection with 50 μl conc. virus per well for 3 h at 37° C.
Addition of 10 μg/ml anti-CD81 antibody (α-CD81) for single-round infection
Day 4: Harvest infected cells for FACS analysis.

Another experiment concerns MEK 1/2. The following applies: cited from earlier work.
In the next experiment the test system is Mek. The following applies: cited from earlier work.
The subject of another experiment is ERK. The settings on record: cited from earlier work.
In the next experiment the target is c-Src (Homo sapiens, UniProt P12931). The following applies: cited from earlier work.
Sequence of c-Src (P12931 whole entry, species assumed): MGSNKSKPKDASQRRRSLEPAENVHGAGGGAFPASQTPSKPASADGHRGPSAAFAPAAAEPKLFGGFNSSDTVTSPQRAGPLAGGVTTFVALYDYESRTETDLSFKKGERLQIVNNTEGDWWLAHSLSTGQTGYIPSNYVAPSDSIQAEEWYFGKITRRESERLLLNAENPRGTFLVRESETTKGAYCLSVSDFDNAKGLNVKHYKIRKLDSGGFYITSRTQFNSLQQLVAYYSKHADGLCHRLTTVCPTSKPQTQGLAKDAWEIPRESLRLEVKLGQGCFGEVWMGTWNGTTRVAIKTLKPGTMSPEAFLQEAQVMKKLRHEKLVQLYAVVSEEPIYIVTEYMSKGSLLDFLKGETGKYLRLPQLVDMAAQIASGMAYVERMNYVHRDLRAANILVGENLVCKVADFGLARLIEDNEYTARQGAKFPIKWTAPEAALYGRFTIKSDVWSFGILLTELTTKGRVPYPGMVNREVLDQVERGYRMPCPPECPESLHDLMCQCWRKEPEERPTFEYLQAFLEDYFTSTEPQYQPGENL
The test system of another experiment is cdks. The settings on record: cited from earlier work.
The target in another experiment is PI 3-kinase γ (Homo sapiens, UniProt P48736). The settings on record: cited from earlier work.
Sequence of PI 3-kinase γ (P48736 whole entry): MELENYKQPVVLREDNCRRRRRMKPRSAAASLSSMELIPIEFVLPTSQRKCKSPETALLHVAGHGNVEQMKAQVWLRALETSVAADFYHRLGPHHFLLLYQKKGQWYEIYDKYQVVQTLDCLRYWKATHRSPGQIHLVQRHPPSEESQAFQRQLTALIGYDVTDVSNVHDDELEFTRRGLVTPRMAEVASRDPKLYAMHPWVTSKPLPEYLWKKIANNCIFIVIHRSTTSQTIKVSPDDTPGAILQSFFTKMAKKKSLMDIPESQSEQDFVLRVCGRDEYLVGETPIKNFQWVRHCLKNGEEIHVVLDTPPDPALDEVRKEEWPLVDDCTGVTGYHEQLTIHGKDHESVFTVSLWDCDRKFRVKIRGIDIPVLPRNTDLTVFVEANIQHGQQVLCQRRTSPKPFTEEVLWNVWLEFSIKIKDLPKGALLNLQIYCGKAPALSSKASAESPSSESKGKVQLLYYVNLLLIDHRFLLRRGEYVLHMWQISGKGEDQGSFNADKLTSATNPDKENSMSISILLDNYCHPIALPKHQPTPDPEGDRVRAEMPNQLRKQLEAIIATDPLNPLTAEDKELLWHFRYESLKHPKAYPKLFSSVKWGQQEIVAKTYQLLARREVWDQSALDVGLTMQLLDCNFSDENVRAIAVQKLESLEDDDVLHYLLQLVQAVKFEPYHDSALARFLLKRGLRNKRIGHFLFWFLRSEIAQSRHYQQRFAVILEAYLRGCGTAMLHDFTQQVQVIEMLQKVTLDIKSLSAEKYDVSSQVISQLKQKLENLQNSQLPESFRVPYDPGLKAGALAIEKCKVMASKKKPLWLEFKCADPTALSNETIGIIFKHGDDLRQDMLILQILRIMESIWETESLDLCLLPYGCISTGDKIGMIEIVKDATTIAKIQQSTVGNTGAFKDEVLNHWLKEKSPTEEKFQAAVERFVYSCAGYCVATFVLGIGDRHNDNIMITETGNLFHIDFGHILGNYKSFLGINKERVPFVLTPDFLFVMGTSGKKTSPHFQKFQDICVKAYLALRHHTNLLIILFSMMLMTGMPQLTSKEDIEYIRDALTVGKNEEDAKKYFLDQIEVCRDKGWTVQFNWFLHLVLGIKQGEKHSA

Sequence of MEK-1 (Q02750 whole entry, species assumed): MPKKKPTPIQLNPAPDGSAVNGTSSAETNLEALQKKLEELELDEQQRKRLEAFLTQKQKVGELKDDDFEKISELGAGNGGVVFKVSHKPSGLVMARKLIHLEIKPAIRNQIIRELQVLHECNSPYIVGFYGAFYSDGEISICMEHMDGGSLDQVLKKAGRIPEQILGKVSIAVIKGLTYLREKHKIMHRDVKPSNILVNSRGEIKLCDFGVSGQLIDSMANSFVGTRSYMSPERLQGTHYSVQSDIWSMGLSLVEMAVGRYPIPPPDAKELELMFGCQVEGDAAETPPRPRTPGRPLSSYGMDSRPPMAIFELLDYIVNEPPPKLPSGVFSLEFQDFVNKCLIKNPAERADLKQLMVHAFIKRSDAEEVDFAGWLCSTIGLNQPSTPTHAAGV
Sequence of ERK-2 (P28482 whole entry, species assumed): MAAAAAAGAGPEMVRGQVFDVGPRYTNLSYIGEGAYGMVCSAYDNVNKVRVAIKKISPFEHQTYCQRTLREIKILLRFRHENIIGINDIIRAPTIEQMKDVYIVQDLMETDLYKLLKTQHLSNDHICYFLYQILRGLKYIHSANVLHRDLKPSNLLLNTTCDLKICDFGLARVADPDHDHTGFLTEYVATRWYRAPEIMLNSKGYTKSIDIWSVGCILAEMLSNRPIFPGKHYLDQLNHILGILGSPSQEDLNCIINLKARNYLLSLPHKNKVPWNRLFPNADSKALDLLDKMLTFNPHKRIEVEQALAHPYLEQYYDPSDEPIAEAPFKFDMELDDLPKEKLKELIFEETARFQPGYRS

As to `COc1cc(O)c2c(c1)/C=C/C[C@]1(O)C(C=CC(=O)[C@H]1O)[C@H](C)OC2=O` (stereo partly drawn) [L-783,277], the IC50 (commonly the midpoint of a concentration-inhibition curve) at MEK-1 was 0.004 µM.

Take `COc1cc(O)c2c(c1)/C=C/C[C@@]1(O)C(C=CC(=O)[C@H]1O)[C@H](C)OC2=O` (some centres unmarked) [Ro 09-2210]: the IC50 on MEK-1 was 0.06 µM.

For `Cc1cc(O)c2c(=O)c3c(O)cc(O)c4c5c(O)cc(O)c6c(=O)c7c(O)cc(C)c8c1c2c(c34)c(c78)c65` [Hypericin], the IC50 on ERK-2 is 0.004 µM.

In the case of `N#CC(=C(/N)Sc1ccccc1N)/C(C#N)=C(\N)Sc1ccccc1N` [U0126, 1,4-Diamino-2,3-dicyano-1,4-bis(2-aminophenylthio)butadiene], the “HCV copies per ml supernatant relative to supernatant of control treated cells” value in the experiment with HCV [1] is recorded as “one third”. The “level of intracellular HCV RNA per μg total RNA” value in the experiment with HCV [2] is listed as “increased”. Further, the “viral entry detected by GFP expression” value in the experiment on HCV [3] is “HCV entered the cells”.

With `Cc1cc(I)ccc1Nc1c(C(=O)NOCC2CC2)cc(F)c(F)c1F` [PD198306, N-(Cyclopropylmethoxy)-3,4,5-trifluoro-2-[(4-iodo-2-methylphenyl)amino]-benzamide], the “concentration inhibiting isolated enzyme” value in the experiment with MEK 1/2 was 8 nM. The “concentrations inhibiting Mek activity in synovial fibroblasts” value with Mek is 30 to 100 nM. In addition, the 50% inhibitory concentration (IC50) in the experiment on ERK is above 1 µM; at c-Src it was above 4 µM; in the experiment with cdks, above 4 µM; on PI 3-kinase γ, above 10 µM.

In the case of `Nc1n[nH]c2nnc(-c3c(-c4ccccc4)nn4ccccc34)cc12` [FR180204, 5-(2-phenylpyrazolo[1,5-a]pyridin-3-yl)-1H-pyrazolo[3,4-c]pyridazin-3-amine], in the experiment with HCV [1], the “decrease in number of HCV copies per ml supernatant compared with control treated cells” value is recorded as around 50%. Moreover, the “level of intracellular HCV RNA per μg total RNA” value in the experiment on HCV [2] was “increased”.
